Earlier results on 2 compounds are cited in US20080057125A1, “STABLE TABLET DOSAGE FORMS OF PROTON PUMP INHIBITORS” (priority 2005, published 2008).

Read-outs that look alike come from different tables or passages of the source.

The conditions of data set [1]: 25° C.
The conditions of data set [2]: from commercially marketed dosage forms.

As for `Cc1c(OCC(F)(F)F)ccnc1C[S+]([O-])c1nc2ccccc2[nH]1` (stereo not shown) [Lansoprazole, 2-[[[3-methyl-4-(2,2,2-trifluoroethoxy)-2-pyridyl]methyl]sulfinyl]benzimidazole], the “degradation half-life in aqueous solution” value in data set [1] (pH 5.0) is reported as “approximately 0.5 hour”; in data set [1] (pH 7.0), “approximately 18 hours”. The percent bioavailability in data set [2] is on record as 80-85%.
Consider `COc1ccc2[nH]c([S+]([O-])Cc3ncc(C)c(OC)c3C)nc2c1` (stereo not shown) [omeprazole, 2-[2-(3,5-dimethyl-4-methoxy)-pyridylmethylsulfinyl]-(5-methoxy)-benzimidazole], for which the percent bioavailability in data set [2] is 30-40%.
